Experimental data taken from the supplement of paper PMC10790783.
Structures can show the parent of a compound that is named as a salt.

Each compound was assayed on MRC5-hT fibroblasts expressing HCMV UL38 (glucose-free medium) (assay: rescue of cell number (AUC of dose-response) relative to untreated glucose-free control; higher = stronger protection from glucose-starvation-induced cell death). Conditions: glucose: 0 (glucose-free DMEM); 96 h; dose range 0.001-20, 10-point curve µM.
Description: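 MRC5-hT fibroblasts stably expressing HCMV UL38 were seeded in 384-well plates, serum-starved for 24 h, switched to glucose-free DMEM, and pin-transferred with a metabolism-focused compound library as 10-point dose curves (1 nM to 20 µM; n=2). Nuclei were counted by Hoechst imaging 96 h after glucose withdrawal.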

SMILES	rescue of cell number
CC(C)(C)NC(=O)[C@H]1CC[C@H]2[C@@H]3CC[C@H]4NC(=O)C=C[C@]4(C)[C@H]3CC[C@]12C [Finasteride]	-38.3%
CC(C)(C)c1ccc(S(=O)(=O)NCc2ccc(C(=O)Nc3cccnc3)cc2)cc1 [STF_31]	26.1%
O=c1[nH]cc(F)c(=O)[nH]1 [5_Fluorouracil]	-15.2%
O=C(O)[C@@]1(CCCCCCOc2ccc(Cl)cc2)CO1 [(R)_(+)_Etomoxir_sodium_salt]	17.7%
Cc1oncc1C(=O)Nc1ccc(C(F)(F)F)cc1 [Leflunomide]	9.81%
CCCCC[C@H](CC(=O)NO)C(=O)N[C@H](C(=O)N1CCC[C@H]1CO)C(C)C [Actinonin]	-1.46%
CCCCCCCC/C=C\CCCCCCCC(=O)NCCO [Oleylethanolamide]	-13.2%
OC[C@H]1O[C@@H](n2cnc3c2N=CNC[C@H]3O)C[C@@H]1O [Pentostatin]	-17.8%
C=C1C(=O)O[C@H]2[C@H]1CC/C(C)=C/CC[C@@]1(C)O[C@@H]21 [Parthenolide]	34.9%
Cc1cc(C)nc(NC(=S)N2CCN(Cc3ccc(C(F)(F)F)cc3)CC2)c1 [NCT-503]	-9.82%
Cc1c(O)c(=O)ccn1C [Deferiprone]	25.4%
NCCCNCCSP(=O)(O)O [Amifostine]	110%
Cc1cccc(CC(=O)N2CCc3c2ccc(-c2cn(C)c4ncnc(N)c24)c3F)n1	70.7%
Cc1ccc(C(=O)c2cc(O)c(O)c([N+](=O)[O-])c2)cc1 [Tolcapone]	37.3%
OCCN(CCO)c1nc(N2CCCCC2)c2nc(N(CCO)CCO)nc(N3CCCCC3)c2n1 [Dipyridamole]	141%
CCOC(=O)N1c2ccc(C(F)(F)F)cc2[C@@H](N(Cc2cc(C(F)(F)F)cc(C(F)(F)F)c2)C(=O)OC)C[C@H]1CC [Torcetrapib]	-13.1%
CCCCCCCCCCCCCCOc1ccc(C(=O)O)o1 [TOFA]	48.9%
Cc1ccc(-c2cc(=O)c3ccc4ccccc4c3o2)cc1	155%
Cc1cc(/C=C/c2ccc3cc(N(C)C)ccc3[n+]2C)c(C)n1-c1ccccc1 [Pyrvinium_pamoate]	5.84%
CC(=O)OC[C@H]1O[C@@H]([S-])[C@H](OC(C)=O)[C@@H](OC(C)=O)[C@@H]1OC(C)=O.CCP(CC)CC.[Au+] [Auranofin]	-0.594%
CCOc1ccc(Cc2cc([C@@H]3O[C@H](CO)[C@@H](O)[C@H](O)[C@H]3O)ccc2Cl)cc1 [Dapagliflozin]	-33.4%
C=CCN(C)CCCCCCOc1ccc(C(=O)c2ccc(Br)cc2)c(F)c1 [Ro_48_8071]	-2.22%
COC(=O)c1ccc([C@H]2c3[nH]c4ccccc4c3C[C@H](C(=O)OC)N2C(=O)CCl)cc1 [1S,3R-RSL3]	35.2%

SMILES	rescue of cell number
O=C(O)CCCCC(CCSCc1ccccc1)SCc1ccccc1 (centres undefined) [CPI-613]	28.9%
CC(=O)O[C@H]1C(=O)[C@@]2(C)[C@H]([C@H](OC(=O)c3ccccc3)[C@]3(O)C[C@H](OC(=O)[C@H](O)[C@@H](NC(=O)c4ccccc4)c4ccccc4)C(C)=C1C3(C)C)[C@]1(OC(C)=O)CO[C@@H]1C[C@@H]2O [Taxol]	21.5%
Oc1cccnc1NC(c1ccc(Cl)cc1)c1ccc2cccnc2c1O (centres undefined) [Adaptaquin]	33.2%
CN1Cc2c(N)cccc2C(c2ccccc2)C1 (centres undefined) [Nomifensine]	-5.61%
Cc1cn[nH]c1 [Fomepizole]	81.1%
CC[C@]1(O)C[C@H]2CN(CCc3c([nH]c4ccccc34)[C@@](C(=O)OC)(c3cc4c(cc3OC)N(C=O)[C@H]3[C@@](O)(C(=O)OC)[C@H](OC(C)=O)[C@]5(CC)C=CCN6CC[C@]43[C@@H]65)C2)C1 [Vincristine_sulfate]	29.6%
CC(C)C[C@@H](C(=O)N[C@H](C(=O)OC1CCCC1)c1ccccc1)[C@H](O)C(=O)NO [CHR_2797]	-14.9%
Cc1nc2ccc(C(=O)N3CCC4(CC3)CC(=O)c3c(cnn3C(C)C)C4)cc2[nH]1	31.8%
O=c1cnn([C@@H]2O[C@H](CO)[C@@H](O)[C@H]2O)c(=O)[nH]1 [6_Azauridine]	-34.1%
COc1cccc2c(NCc3ccccc3)nc(-n3c(N)nc4ccccc43)nc12 [ML240]	57.1%
N#Cc1ccnc(N2C(=O)CC[C@H]2C(=O)N(c2cncc(F)c2)[C@H](C(=O)NC2CC(F)(F)C2)c2ccccc2Cl)c1 [AG-120]	-8.45%
CC(C)(C#N)c1cc(Cn2cncn2)cc(C(C)(C)C#N)c1 [Anastrozole]	29.4%
CCOC(=O)c1ccc(-c2ccc(OC(=O)N(C)Cc3cccc(-c4ccncc4)c3)cc2)cc1 [WWL_113]	-23.8%
OCC(CO)N[C@H]1C[C@](O)(CO)[C@@H](O)[C@H](O)[C@H]1O [Voglibose]	-36.2%
COc1cccc2c(NCc3ccccc3)nc(-n3c(N)nc4ccccc43)nc12 [ML_240]	50.1%
COc1c(C)c2c(c(O)c1C/C=C(\C)CCC(=O)O)C(=O)OC2 [Mycophenolic_Acid]	51.6%
CCCCC[C@H](O)CC(=O)CCc1ccc(O)c(OC)c1 [[6]-Gingerol]	-29.7%
CC(=O)N1CCN(c2ccc(OCC3COC(Cn4ccnc4)(c4ccc(Cl)cc4Cl)O3)cc2)CC1 (centres undefined) [Ketoconazole]	-8.71%
CCc1ccc(Cc2ccc3c(c2)[C@]2(OC3)O[C@H](CO)[C@@H](O)[C@H](O)[C@H]2O)cc1 [Tofogliflozin hydrate]	-27.9%
O=C(O)c1cc(/N=N/c2ccc(S(=O)(=O)Nc3ccccn3)cc2)ccc1O [Sulfasalazine]	87.4%
O=C(O)c1ccccc1SC1=NS(=O)(=O)c2ccccc21	-13.9%
Cc1nc(-c2ccc(OCC(C)C)c(C#N)c2)sc1C(=O)O [Febuxostat]	73.9%
CN(Cc1cnc2nc(N)nc(N)c2n1)c1ccc(C(=O)N[C@@H](CCC(=O)O)C(=O)O)cc1 [Methotrexate]	-33.3%

SMILES	rescue of cell number
COC(=O)/C=C/C(=O)OC [Dimethyl fumarate]	67.2%
O=C(C1CC1)N1CC[C@@H](Cc2n[nH]c(=O)n2-c2ccc(-c3ccc4occc4c3)cc2)C1	117%
CC(=O)N[C@H]1[C@@H](O[C@@H]2O[C@H](CC(O)[C@H]3O[C@@H](n4ccc(=O)[nH]c4=O)[C@H](O)[C@@H]3O)[C@H](O)[C@H](O)[C@H]2NC(=O)/C=C/CC(C)C)O[C@H](CO)[C@@H](N)[C@@H]1O (some centres undefined) [Tunicamycin]	3.6%
C/C=C(/C)C(=O)O[C@H]1C(C)=C2[C@H]([C@@H]1OC(=O)CCCCCCC)[C@@](C)(OC(C)=O)C[C@H](OC(=O)CCC)[C@@]1(O)[C@H]2OC(=O)[C@@]1(C)O [Thapsigargin]	25.4%
C[C@@H]1CC[C@H]2[C@@H](C)C(=O)O[C@@H]3O[C@@]4(C)CC[C@@H]1[C@]32OO4 [Artemisinin]	15.9%
[N-]=[N+]=CC(=O)OC[C@H](N)C(=O)O [Azaserine]	-20.4%
CCN[C@H]1C[C@H](C)S(=O)(=O)c2sc(S(N)(=O)=O)cc21 [Dorzolamide]	104%
OCCN1C[C@H](O)[C@@H](O)[C@H](O)[C@H]1CO [Miglitol]	-37.1%
CC(=O)c1ccc2c(c1)Nc1ccccc1S2 [ML_171]	23%
O=C1CCCC(=O)C1C(=O)c1ccc(C(F)(F)F)cc1[N+](=O)[O-] [Nitisinone]	5%
O=S(=O)(O)CCSSCCS(=O)(=O)O [Dimesna]	-37.8%
O=C(O)CSc1nnc(Br)n1-c1ccc(C2CC2)c2ccccc12 [Lesinurad]	-28.1%
CC1(C)CCC2=C(O1)c1ccccc1C(=O)C2=O [beta_Lapachone]	70.8%
CC(C)c1cc(C(C)C)c(CC(=O)NS(=O)(=O)Oc2c(C(C)C)cccc2C(C)C)c(C(C)C)c1 [Avasimibe]	7.22%
O=C(Nc1ccccc1)Nc1ccc(-c2ccc(C(=O)[C@@H]3CCC[C@H]3C(=O)O)cc2)cc1	-36.5%
CC1=C(/C=C/C(C)=C/C=C/C(C)=C\C(=O)O)C(C)(C)CCC1 [Isotretinoin]	128%
C[C@H]1[C@H](OC(=O)CCC(=O)O)O[C@@H]2O[C@@]3(C)CC[C@H]4[C@H](C)CC[C@@H]1[C@@]24OO3 [Artesunate]	9.86%
C/C=C/C/C=C/CCC(=O)[C@H]1O[C@H]1C(N)=O [Cerulenin]	34.9%
O=C(O)C[C@@]1(O)C[C@@H](CCCCCCc2ccc(Cl)cc2Cl)OC1=O	45.4%
CN1CCN(C(=O)c2ccc(-c3ccc4c(C=O)c(O)ccc4c3)s2)CC1 [MKC3946]	-14.6%
COc1ccccc1OCC(O)CN1CCN(CC(=O)Nc2c(C)cccc2C)CC1 (centres undefined) [Ranolazine]	-35.4%
N#CC(CCCN1CCN(/N=C/c2cccnc2)CC1)(c1ccccc1)c1ccccc1	99.9%
CNc1ccc(C(=O)Oc2cc(O/N=[N+](\[O-])N(C)C)c([N+](=O)[O-])cc2[N+](=O)[O-])cc1 [PABA_NO]	-16.1%
